# According to US20260151446A1, “IMPROVED ORAL BIOAVAILABILITY FORMULATION FOR MITRAGYNA SPECIOSA (KRATOM)” (priority 2022, published 2026):
# Assays:
# [1] = rats; delivered as a purified aqueous solution; cited from earlier work
# [2] = single oral dose of 5 mg/kg mitragynine equivalent; female beagle dogs; cited from earlier work
# [3] = Proof of concept pharmacokinetic / bioavailability study, plasma mitragynine after single dose; format: in vivo, Sprague Dawley rats; settings: male rats
# Experimental: Once the capsule formulation was finalized, a proof of concept and safety study was carried out in Sprague Dawley rats. Male and female rats (250±25 g) were purchased from Envigo (Indianapolis, IN, USA) with indwelling jugular vein cannulas and acclimated ≥72 h in a temperature- and humidity-controlled vivarium on a 12 h light/dark cycle. Study protocols were approved by the Institutional Animal Care and Use Committee (IACUC) at the University of Florida, which is fully accredited by the Association for Assessment and Accreditation of Laboratory Animal Care International (AAALAC) and were written in accordance with the National Institutes of Health (NIH) Guide for the Care and Use of Laboratory Animals.
# Rats were fasted for 10 h prior to dosing and an additional 2 h post-dose. Rats were dosed with one size 9 gelatin capsule with fill weights of 19.5±0.5 mg, (about 5.1 mg kratom or 2.3 mg mitragynine). […] Rats were connected to an automatic blood collection system (Bioanalytical Systems Inc., West Lafayette, IN, USA) and blood samples were taken at pre-dose, 0.08, 0.17, 0.25, 0.5, 0.75, 1, 2, 4, 6, 8, 12, 18, and 24 h. At the completion of the study, plasma samples were separated by centrifugation at 850×g for 10 min at 4° C. and stored at −20° C. until analysis.
# To process plasma (rat or dog) samples for analysis, 20 μL aliquots of each sample were taken. To prepare calibration standards (CS), 2.0 μL of mix stock were added to 18 μL of blank plasma. This generated eight standards of 2.5, 5, 25, 50, 100, 150, 250, and 500 ng/mL, in the respective plasma. The same process was used to generate the lower limit of quantification (LLOQ) (2.5 ng/mL), low quality control (LQC) (6.25 ng/mL), medium quality control MQC (200 ng/mL) and high quality control (HQC) (400 ng/mL). After spiking, the CS and QC samples were vortex mixed for 5 min at 650 rpm. Analytes were precipitated using 100 μL methanol acidified with 0.05% formic acid containing 50 ng/mL IS in a 1:4 ratio. The samples were then vortex mixed for 5 min at 650 rpm before being transferred to a 96-well Millipore Solvinert 0.45 μm filter plate (Burlington, MA, USA) and centrifuged at 850×g for 2 min at 4° C.
# A previously reported UPLC-MS/MS method for the quantification of eleven kratom alkaloids was used to analyze all samples^13. Briefly, the mobile phase composed of aqueous ammonium acetate buffer (2.5 mM, pH 3.5, (A)) and acetonitrile (B). The gradient started at 90% A and 10% B, and A was decreased to 75% by 3.5 min and then to 60% by 10 min. […] An Acquity UPLC® BEH C18 column (1.7 μm, 2.1×100 mm) with a VanGuard precolumn of the same chemistry was used for separation (Waters, Milford, MA, USA). The UPLC-MS/MS was a Waters™ Acquity Class-I chromatograph coupled with a Xevo TQ-S Micro triple quadrupole mass spectrometer (Waters, Milford, MA, USA).
# The TargetLynx™ application of MassLynx™ 4.2 was used for data processing and quantification of the UPLC-MS/MS data (Waters, Milford, MA, USA). Phoenix Version 6.4 (Certara, Princeton, NJ, USA) was used for the non-compartmental analysis using a linear log interpolation. Graphpad Prism Version 8 (GraphPad Software, San Diego, CA, USA) was used to plot the concentration-time profiles for each dataset. R Studio version 1.4.1717 was used for statistical analysis (R Foundation for Statistical Computing, Vienna, Austria).
# [4] = mitragynine in plasma, oral 20 mg/kg
smiles,measurement,setting,value
"CC[C@@H]1CN2CCc3c([nH]c4cccc(OC)c34)[C@@H]2C[C@@H]1/C(=C\OC)C(=O)OC [Mitragynine, mitragynine]",bioavailability of mitragynine,[1],17%
same,tolerability,[2],well tolerated
same,Tmax,"[3]; Sprague Dawley, rat, in vivo, mitragynine in plasma, oral 20 mg/kg",24 ± 6 min
same,bioavailability,"[3]; Sprague Dawley, rat, in vivo, mitragynine, oral 20 mg/kg",37%
same,AUC/Dose,"[3]; mitragynine in plasma, IV […]",335 ± 16.5 µg·h/L/mg/kg
same,AUC/Dose,[3]; [4],122.4 ± 13.0 µg·h/L/mg/kg
same,Cmax/Dose,[3]; [4],22.7 ± 4.9 µg/L/mg/kg
